Reference: patent US10585087B2, “Method for evaluating and selecting agent for suppressing odors of sulfide compounds” (KAO CORPORATION, priority 2015, dated 2020)

How the values were obtained:
olfactory receptor OR4S2 [1] = molecular target: T1, olfactory receptor OR4S2 (Homo sapiens, UniProt Q8NH73); assay: Luciferase reporter gene assay: suppression of OR4S2 response to DMDS or DMTS by test substance; type: cell-based; conditions: for response (Fold increase) of OR4S2 to DMTS in the presence of test substance: 300 μM DMTS, test substance 100 μM, FIG. 6; for response (Response %) of OR4S2 to DMDS in the presence of test substance: 1 mM DMDS, test substance 0 to 3000 μM, FIG. 5
T1 construct: expressed in transfected cells; host or cells: HEK293
T1 sequence (Q8NH73 1-311): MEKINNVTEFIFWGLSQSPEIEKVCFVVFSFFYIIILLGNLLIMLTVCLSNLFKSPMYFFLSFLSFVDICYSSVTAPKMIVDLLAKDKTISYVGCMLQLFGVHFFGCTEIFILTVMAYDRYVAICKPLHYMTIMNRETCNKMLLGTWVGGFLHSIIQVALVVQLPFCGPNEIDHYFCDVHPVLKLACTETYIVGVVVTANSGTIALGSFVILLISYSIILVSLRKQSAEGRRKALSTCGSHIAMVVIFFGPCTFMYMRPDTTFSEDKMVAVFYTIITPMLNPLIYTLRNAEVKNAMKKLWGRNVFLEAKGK
Description: By using the same procedure as in Example 1 (1) to (3), HEK293 cells expressing OR4S2 (SEQ ID NO: 2) were prepared. The response of the olfactory receptor to DMDS (the value fLuc/hRluc) was measured in the presence and absence of a test substance by using luciferase reporter gene assay in accordance with the procedure in Example 1 (4). The value fLuc/hRluc induced by a stimulus of single DMDS, (X), the value fLuc/hRluc for cells without a stimulus of DMDS, (Y), and the value fLuc/hRluc induced by a co-stimulus of DMDS and a test substance, (Z), were determined, and the intensity of the response (Response (%)) of the receptor to DMDS in the presence of a test substance was determined by using the following formula. Response (%)=(Z−Y)/(X−Y)×100 The experiment was performed independently three times, and the average value of the experiments was determined. The concentration of DMDS to be added to a culture was set at 1 mM, and the concentration of a test substance to be added was changed in the range of from 0 to 3000 μM.
For the response to DMTS, the value fLuc/hRluc to a stimulus of single DMTS, (X′), was divided by the value fLuc/hRluc for cells without a stimulus of DMTS, (Y), and the value obtained by the division, (X′/Y), was set as a value of the response to DMTS (Fold increase). To compare the effect of a test substance on the response to DMTS, the value fLuc/hRluc induced by a co-stimulus of DMTS and a test substance, (Z′), was similarly divided by the value fLuc/hRluc for cells without a stimulus, (Y), to calculate (Z′/Y) as Fold increase. The experiment was performed independently three times, and the average value of the experiments was determined. The concentration of DMTS to be added to a culture was set at 300 μM, and the concentration of a test substance to be added was set at 100 μM.

[2] = Sensory test of odor-suppressing effect for sulfide compounds; type: in vivo; conditions: for odor intensity of DMTS in sensory test: 0.01% (v/v) DMTS and 0.1% (v/v) test substance in mineral oil, 11 evaluators, FIG. 7B; for odor intensity of DMDS in sensory test: 0.1% (v/v) DMDS and 0.1% (v/v) test substance in mineral oil, 10 evaluators, FIG. 7A
Description: For each of DMDS, cis-4-heptenal, and 1,4-cineol, a 0.1% (v/v) solution in mineral oil was prepared. For DMTS, a 0.01% (v/v) solution in mineral oil was prepared. Two cotton balls were put in a 20 mL glass bottle (Maruemu Corporation, No. 6), and one cotton ball was impregnated with 30 μL of the DMDS or DMTS solution, and the other cotton ball was impregnated with 30 μL a solution of one of the OR4S2 antagonists. The glass bottle containing the cotton balls was covered with a lid, and left to stand at 37° C. for 1 hour, and thereafter used as a test sample for a sensory test. Glass bottles containing only a cotton ball impregnated with the DMDS or DMTS solution were prepared as reference samples, and a glass bottle containing only a cotton ball impregnated with mineral oil (Vehicle) was prepared as a control sample.
A sensory test was performed in a single-blinded mode with 10 evaluators for DMDS and 11 evaluators for DMTS. The test was initiated after two o'clock pm, which was 1.5 hours or longer after a meal. To prevent diffusion of a smell, the test was performed essentially under a fume hood. To eliminate the influence of adaptation to odors of sulfide compounds, the evaluators were appropriately checked for the intensity of recognition to the odor of DMDS or DMTS in the test, and rested as necessary. The evaluators were separated into two groups, and one group evaluated the odor-suppressing effect for DMDS or DMTS with respect to cis-4-heptenal and 1,4-cineol, in the order presented, and the other group evaluated it with respect to 1,4-cineol and cis-4-heptenal, in the order presented. Each test sample was replaced with another one after evaluation by each of three evaluators.
In evaluation of odors of test samples, the following criteria in five grades were set for each evaluator: “odor of DMDS (or DMTS) was 1: unidentifiable, 2: perceivable, 3: easily identifiable, 4: strong, 5: intolerably strong”, and the evaluators rated the odor intensity of DMDS (or DMTS) for each test sample in nine grades from 1.0 to 5.0 at an interval of 0.5, where the odor intensity of single DMDS (or DMTS) was assumed as 3. The average value of the evaluation results by the evaluators was determined.

olfactory receptor OR4S2 [3] = molecular target: T1, olfactory receptor OR4S2; assay: Luciferase reporter gene assay: response of olfactory receptor to sulfide compound; type: cell-based; conditions: for response of olfactory receptor OR4S2 (fold increase) in screen of 428 olfactory receptors / concentration dependence of the response of OR4S2: HEK293 cells expressing OR4S2; for response of olfactory receptor OR4S2 (fold increase) in screen of 428 olfactory receptors: 100 μM sulfide compound, FIG. 1; for concentration dependence of the response of OR4S2: different concentrations, FIG. 2
Description: A human olfactory receptor was cloned by using the PCR method with human genomic DNA (G1521: Promega Corporation) as a template on the basis of sequence information registered in GenBank. Each gene amplified through the PCR method was incorporated into a pENTR vector (Invitrogen) in accordance with the manual, and recombined, by utilizing the NotI and AscI sites present in the pENTR vector, with a pME18S vector at the NotI and AscI sites produced in the downstream of the Flag-Rho tag sequence of the pME18S vector.
An RTP1S gene (SEQ ID NO: 3) encoding RTP1S (SEQ ID NO: 4) was incorporated into the pME18S vector at the EcoRI and XhoI sites thereof.
HEK293 cells expressing any one of 428 human olfactory receptors were produced. A reaction solution with a composition shown in Table 2 was prepared and left to stand in a clean bench for 15 minutes, and then added to each well of a 96-well plate (BD Biosciences). Subsequently, 90 μL of HEK293 cells (3×10^5 cells/cm^2) was seeded in each well, and cultured in an incubator retained at 37° C. and 5% CO2 for 24 hours. As a control, cells with conditions for no expression of an olfactory receptor (Mock) were prepared and used in an experiment.
An olfactory receptor expressed on HEK293 cells increases the intracellular cAMP level through conjugation with the intracellular Gαs followed by resulting activation of adenylate cyclase. For smell response measurement in this study, luciferase reporter gene assay was used in which increase of the intracellular cAMP level is monitored as an emission value derived from a firefly luciferase gene (fluc2P-CRE-hygro). Transgenesis was simultaneously performed by using a product with a sea pansy luciferase gene fused to the downstream of the CMV promoter (hRluc-CMV), and the resultant was used as an internal standard to correct errors of transgenesis efficiency and the number of cells.
The medium was removed from the culture prepared in the above (3), and 75 μL of a solution containing a sulfide compound prepared with DMEM (NACALAI TESQUE, INC.) was added. The sulfide compound was 100 μM of dimethyl disulfide (DMDS) or dimethyl trisulfide (DMTS). The cells were cultured in a CO2 incubator for 3 hours to allow the luciferase gene to be sufficiently expressed in the cells. Measurement of the activity of luciferase was performed by using a Dual-Glo™ luciferase assay system (Promega Corporation) in accordance with an operation manual of the product. For each stimulus condition, the value fLuc/hRluc was calculated by dividing the emission value derived from firefly luciferase by the emission value derived from sea pansy luciferase. The value fLuc/hRluc derived from firefly luciferase and induced by a stimulus of a sulfide compound was divided by the value fLuc/hRluc for cells without a stimulus of a sulfide compound to calculate a fold increase, and the fold increase was used as an indicator of intensity of response.

With `CC(C)C12CCC(C)(CC1)O2` [1,4-cineol, 1,4-Cineole] the “response (Fold increase) of OR4S2 to DMTS in the presence of test substance” value (olfactory receptor OR4S2 [1]) was “suppressed the response of OR4S2 to DMTS”, the “response (Response %) of OR4S2 to DMDS in the presence of test substance” value (olfactory receptor OR4S2 [1]) was “suppressed the response of OR4S2 to DMDS in a concentration-dependent manner” and the “odor intensity of DMTS in sensory test” value [2] was “suppressed the odor intensity”. The “odor intensity of DMDS in sensory test” value [2] was “suppressed the odor intensity”.

For `CSSC` [DMDS, Dimethyl disulfide], the “response of olfactory receptor OR4S2 (fold increase) in screen of 428 olfactory receptors” value (olfactory receptor OR4S2 [3]) was “exhibits a specific response” and the “concentration dependence of the response of OR4S2” value (olfactory receptor OR4S2 [3]) was “in a concentration-dependent manner”.

In the case of `CSSSC` [DMTS, Dimethyl trisulfide], the “response of olfactory receptor OR4S2 (fold increase) in screen of 428 olfactory receptors” value (olfactory receptor OR4S2 [3]) is reported as “exhibits a specific response” and the “concentration dependence of the response of OR4S2” value (olfactory receptor OR4S2 [3]) is reported as “in a concentration-dependent manner”.

With `CC/C=C\CCC=O` [cis-4-Heptenal, (Z)-Hept-4-enal] the “response (Fold increase) of OR4S2 to DMTS in the presence of test substance” value (olfactory receptor OR4S2 [1]) was “suppressed the response of OR4S2 to DMTS”, the “response (Response %) of OR4S2 to DMDS in the presence of test substance” value (olfactory receptor OR4S2 [1]) was “suppressed the response of OR4S2 to DMDS in a concentration-dependent manner” and the “odor intensity of DMTS in sensory test” value [2] was “suppressed the odor intensity”. The “odor intensity of DMDS in sensory test” value [2] was “suppressed the odor intensity”.

For `CSC` [dimethyl sulfide (DMS), Dimethylsulfide], the “response of OR4S2” value (olfactory receptor OR4S2 [3]; concentration of 1 mM and 3 mM, FIG. 3) was “responded”.

For `CS` [methylmercaptan, Methylmercaptan], the “response of OR4S2” value (olfactory receptor OR4S2 [3]; 3 mM, FIG. 4) was “did not respond”.
